PubChem BioAssay (NCI)
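48-hour exposure; five concentrations; linearly interpolated endpoints. TGI denotes the concentration required for complete inhibition of growth.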

How the values were obtained:
Assay in all cases: NCI-60 cell line screen, 48 h
NCI/ADR-RES ovarian = tested on: NCI/ADR-RES ovarian
A549 NSCLC = tested on: A549 NSCLC
OVCAR-5 ovarian = tested on: OVCAR-5 ovarian
HT29 colon = tested on: HT29 colon
HL-60(TB) leukemia = tested on: HL-60(TB) leukemia
DU-145 prostate = tested on: DU-145 prostate
EKVX NSCLC = tested on: EKVX NSCLC
SN12C renal = tested on: SN12C renal
KM12 colon = tested on: KM12 colon
SK-MEL-28 melanoma = tested on: SK-MEL-28 melanoma
SW-620 colon = tested on: SW-620 colon
786-0 renal = tested on: 786-0 renal
ACHN renal = tested on: ACHN renal
RXF 393 renal = tested on: RXF 393 renal
RPMI-8226 leukemia = tested on: RPMI-8226 leukemia
K-562 leukemia = tested on: K-562 leukemia
SK-MEL-2 melanoma = tested on: SK-MEL-2 melanoma
HCT-15 colon = tested on: HCT-15 colon
MDA-MB-231 breast = tested on: MDA-MB-231 breast

| Structure (SMILES) | TGI (NCI/ADR-RES ovarian) | TGI (A549 NSCLC) | TGI (OVCAR-5 ovarian) | TGI (HT29 colon) | TGI (HL-60(TB) leukemia) | TGI (DU-145 prostate) | TGI (EKVX NSCLC) | TGI (SN12C renal) | TGI (KM12 colon) | TGI (SK-MEL-28 melanoma) | TGI (SW-620 colon) | TGI (786-0 renal) | TGI (ACHN renal) | TGI (RXF 393 renal) | TGI (RPMI-8226 leukemia) | TGI (K-562 leukemia) | TGI (SK-MEL-2 melanoma) | TGI (HCT-15 colon) | TGI (MDA-MB-231 breast) |
| --- | --- | --- | --- | --- | --- | --- | --- | --- | --- | --- | --- | --- | --- | --- | --- | --- | --- | --- | --- |
| O=c1[nH]nc(Cc2ccccc2)[nH]1 | > 100 µM | > 100 µM | > 100 µM | > 100 µM | > 100 µM | > 100 µM | > 100 µM | > 100 µM | > 100 µM | > 100 µM | > 100 µM | > 100 µM | > 100 µM | > 100 µM | > 100 µM | > 100 µM | > 100 µM | > 100 µM |  |
| O=C1NCCCNCCCNCCCNC(=O)c2cccc1n2 | > 100 µM | > 100 µM | > 100 µM | > 100 µM |  |  | > 100 µM | > 100 µM | > 100 µM | > 100 µM | > 100 µM | > 100 µM | > 100 µM | > 100 µM | > 100 µM | > 100 µM | > 100 µM | > 100 µM | > 100 µM |
| O=C1C=CC=C/C1=C1\N=C(c2ccccc2OCC(=O)c2ccc(Br)cc2)SS1 | > 100 µM | > 100 µM | > 100 µM | > 100 µM | > 100 µM | > 100 µM | > 100 µM | > 100 µM | > 100 µM | > 100 µM | > 100 µM | > 100 µM | > 100 µM | > 100 µM | > 100 µM | > 100 µM | > 100 µM | > 100 µM |  |
| O=C1NC2OCC(O)C(O)C2O1 (stereo unspecified) |  | > 100 µM | > 100 µM | > 100 µM | > 100 µM |  | > 100 µM | > 100 µM | > 100 µM | > 100 µM | > 100 µM | > 100 µM | > 100 µM |  |  | > 100 µM | > 100 µM | > 100 µM |  |
| CC(=O)N[C@@H](Cc1ccc(O)cn1)C(=O)NCc1cccc(Cl)c1 | > 100 µM | > 100 µM | > 100 µM | > 100 µM | > 100 µM | > 100 µM | > 100 µM | > 100 µM | > 100 µM | > 100 µM | > 100 µM | > 100 µM | > 100 µM | > 100 µM | > 100 µM | > 100 µM | > 100 µM | > 100 µM |  |
| COc1cccc(/C=C2\C(=O)N(C(=O)c3ccc(NC(C)=O)cc3)N=C2C)c1 |  | > 100 µM | > 100 µM | > 100 µM |  |  | > 100 µM | > 100 µM |  | > 100 µM | > 100 µM | > 100 µM | > 100 µM |  |  | > 100 µM | > 100 µM | > 100 µM |  |
| O=C(O)Cc1cccc2c1OC(c1ccccc1)C(Cl)(C(=O)c1ccccc1)C2=O (stereo unspecified) | > 100 µM | 86 µM |  | 30 µM | 28 µM | 65.3 µM | 50 µM | 26.2 µM | 50.6 µM | 29.1 µM | 21.2 µM | 25.9 µM | 26.9 µM |  | 47.4 µM | 22.6 µM |  | 28.8 µM | 58.8 µM |
| CC(C)N1CN(C(C(=O)N[C@@H]2C(=O)N3C2SC(C)(C)C3C(=O)O)c2ccccc2)CSC1=S (stereo partly specified) |  |  | > 100 µM | > 100 µM | > 100 µM |  | > 100 µM | > 100 µM | > 100 µM | > 100 µM |  | > 100 µM | > 100 µM |  | > 100 µM | > 100 µM | > 100 µM | > 100 µM |  |
| COC(=O)C(NC(=O)c1ccccc1)c1ccco1 (stereo unspecified) | > 100 µM | > 100 µM | > 100 µM | > 100 µM | > 100 µM | > 100 µM | > 100 µM | > 100 µM | > 100 µM | > 100 µM | > 100 µM | > 100 µM | > 100 µM | > 100 µM | > 100 µM | > 100 µM |  | > 100 µM |  |
| CC(=O)OCCOCn1cnc2c(Cl)nc(Cl)nc21 | 57.5 µM |  | 36.9 µM | 32.9 µM | 6.21 µM | 36.5 µM | 7.83 µM | 33.9 µM | 44.1 µM |  | 30.7 µM | 58 µM | 30.6 µM |  | 33.5 µM | 5.43 µM | 55.6 µM | 14.5 µM | 29 µM |
| Cc1ccc(S(=O)(=O)OC(c2ccc(Cl)cc2Cl)C2OC(=O)c3ccccc32)cc1 (stereo unspecified) |  | > 100 µM | > 100 µM | > 100 µM | 86.1 µM |  | > 100 µM | > 100 µM | > 100 µM | > 100 µM | > 100 µM | > 100 µM | > 100 µM | > 100 µM | > 100 µM | > 100 µM | > 100 µM | > 100 µM |  |
| COc1ccc(-c2cc(=O)c3ccccc3[nH]2)c(OC)c1 |  | > 100 µM |  | > 100 µM | > 100 µM |  | > 100 µM | > 100 µM | > 100 µM | > 100 µM | > 100 µM | > 100 µM | > 100 µM | > 100 µM | > 100 µM | > 100 µM |  | > 100 µM |  |
| CCOP(=O)(O)C1C(CO)OC(n2ccc(=O)[nH]c2=O)C1O (stereo unspecified) |  | > 100 µM |  | > 100 µM | > 100 µM |  | > 100 µM | > 100 µM | > 100 µM | > 100 µM | > 100 µM | > 100 µM | > 100 µM | > 100 µM | > 100 µM | > 100 µM | > 100 µM | > 100 µM | > 100 µM |
| CC(C)Oc1ccc2c(c1)OCC1Cc3ccccc3OC21 (stereo unspecified) | > 100 µM | > 100 µM | > 100 µM | > 100 µM | > 100 µM | > 100 µM | > 100 µM | > 100 µM | > 100 µM |  | > 100 µM | > 100 µM |  |  | > 100 µM | > 100 µM | > 100 µM | 46.2 µM | > 100 µM |
